Laboratory results from patent publication US9233098B2, “Nitrogen-containing fused ring compounds as CRTH2 antagonists” (KBP Biosciences Co., Ltd., priority 2011, dated 2016).
Marks after values point to notes of the source that are not given here.

Biological target: T1, CRTH2 receptor (Homo sapiens, UniProt Q9Y5Y4)
T1 construct: host or cells: CHO-K1/CRTH2/Gα15
T1 sequence (Q9Y5Y4 1-395): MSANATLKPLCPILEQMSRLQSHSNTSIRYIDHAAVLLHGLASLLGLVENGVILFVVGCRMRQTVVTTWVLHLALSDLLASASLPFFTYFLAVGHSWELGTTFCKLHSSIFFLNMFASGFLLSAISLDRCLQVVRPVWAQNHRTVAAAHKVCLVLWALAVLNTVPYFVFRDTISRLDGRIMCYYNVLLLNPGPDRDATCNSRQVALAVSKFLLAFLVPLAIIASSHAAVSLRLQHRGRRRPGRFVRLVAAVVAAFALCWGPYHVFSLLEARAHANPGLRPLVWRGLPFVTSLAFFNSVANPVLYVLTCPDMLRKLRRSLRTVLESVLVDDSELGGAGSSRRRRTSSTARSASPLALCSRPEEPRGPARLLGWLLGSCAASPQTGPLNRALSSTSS
Assay: Calcium flux FLIPR assay, antagonism against CRTH2 receptor (PGD2 at EC80)
Format: cell-based
Details: CHO-K1/CRTH2/Gα15 cells; blocking activation induced by PGD2 at EC80
Description: Test procedure The test was performed by Nanjing GenScript Biotech Ltd. by calcium flux assay. Test procedure and results are as follows:
Material for test was weighed accurately, and DMSO was added to dissolve the material for test, mixed and homogenized sufficiently, and formulated to 50 mM. And then, it was diluted to 50 μM by using 20 mM HEPES (hydroxyethylpiperazine ethanesulfonic acid) buffer solution at pH 7.4, and the maximum concentration of the compound was 10000 nM. It was further diluted by 3 folds as a series, and consecutively diluted to 10 concentrations, to reserve.
FLIPR Assay (Real Time Fluorescence Imaging Analysis)
In a 384 black microwell plate, 20 μl of cell solution containing 20000 CHO-K1/CRTH2/Gα15 was added, and was incubated at 37° C., 5% CO2 for 18 h. Then, 20 μl of stain in the FLIPR® Calcium 4 assay kit (kit) was added, and 10 μl of compound solution was added. Then, it was incubated at 37° C. for 60 min, and was incubated at room temperature for 15 min. Within 20 seconds, PGD2 HEPES buffer solution of an agonist PGD2 (prostaglandin D2) at the concentration of EC80 was added, and the values of fluorescence of 21-120 seconds were detected.
Data Processing ΔRFU(Relative fluorescence intensity)=maximum fluorescence value of 21-120 seconds−average value of fluorescence value of 1-20 seconds. Inhibition ratio={1−(ΔRFUcompound−ΔRFUbackground)/(ΔRFUagonists control−ΔRFUbackground)}×100 IC50 values of the compounds (i.e. the concentration of the compound for test needed for blocking 50% of the activation of CRTH2 receptor induced by PGD2 at the concentration of EC80) were calculated based on the inhibition ratios. Test Results and Conclusions

Row | IC50 | SMILES
1 | 5.7 nM | O=C(O)Cc1nn(Cc2ccc(NC(=O)c3ccc4ccccc4c3)cc2)c2ncccc12 [Compound 23, 2-[1-[4-(2-naphthamido)benzyl]-1H-pyrazolo[3,4-b]pyridin-3-yl]acetic acid]
2 | 14.9 nM | O=C(O)Cc1nn(Cc2ccc(NC(=O)c3ccc4ccccc4c3)cc2)c2cc(F)ccc12 [Compound 12, 2-[1-[4-(2-naphthamido)benzyl]-6-fluoro-1H-indazol-3-yl]acetic acid]
3 | 4.42 nM | O=C(O)Cc1nn(Cc2ccc(NC(=O)c3ccc4cc(F)ccc4c3)cc2)c2ccccc12 [Compound 13, 2-[1-[4-(6-fluoro-2-naphthamido)benzyl]-1H-indazol-3-yl]acetic acid]
4 | 1.19 nM | O=C(O)Cc1nn(Cc2ccc(NC(=O)c3ccc4ccccc4c3)cc2)c2ccc(F)cc12 [Compound 11, 2-[1-[4-(2-naphthamido)benzyl]-5-fluoro-1H-indazol-3-yl]acetic acid]
5 | 10300 nM | O=C(O)CCn1c2c(c3ccccc31)C[C@H](NS(=O)(=O)c1ccc(F)cc1)CC2 [Ramatroban, reference compound]

Further lines, the compound ahead of its results:

Row | SMILES | IC50
6 | Cc1c(Cc2ccc(NC(=O)c3ccc4ccccc4c3)cc2)c2ccccc2n1CC(=O)O [Compound 2, 2-[3-[4-(2-naphthamido)benzyl]-2-methyl-1H-indol-1-yl]acetic acid] | 2.3 nM
7 | Cc1c(CC(=O)O)c2ccccc2n1Cc1ccc(NC(=O)c2ccc3ccccc3c2)cc1 [Compound 1, 2-[1-[4-(2-naphthamido)benzyl]-2-methyl-1H-indol-3-yl]acetic acid] | 2.6 nM
8 | O=C(O)Cc1nn(Cc2ccc(NC(=O)c3ccc4ccccc4c3)cc2)c2ccccc12 [Compound 9, 2-[1-[4-(2-naphthamido)benzyl]-1H-indazol-3-yl]acetic acid] | 3.6 nM
9 | Cc1c(Cc2ccc(NC(=O)c3ccc(Cl)cc3)cc2)c2ccccc2n1CC(=O)O [Compound 6, 2-[3-[4-(4-chlorobenzamido)benzyl]-2-methyl-1H-indol-1-yl]acetic acid] | 0.5 nM
10 | O=C(O)Cc1nn(Cc2ccc(NC(=O)c3ccc(Cl)cc3)cc2)c2ccccc12 [Compound 10, 2-[1-[4-(4-chlorobenzamido)benzyl]-1H-indazol-3-yl]acetic acid] | 7.3 nM
11 | O=C(O)Cn1nc(Cc2ccc(NC(=O)c3ccc4ccccc4c3)cc2)c2ccccc21 [Compound 5, 2-[3-(4-(2-naphthamido)benzyl)-1H-indazol-1-yl]acetic acid] | 2.3 nM
12 | CCc1c(Cc2ccc(NC(=O)c3ccc4ccccc4c3)cc2)c2ccccc2n1CC(=O)O [Compound 7, 2-[3-[4-(2-naphthamido)benzyl]-2-ethyl-1H-indol-1-yl]acetic acid] | 7 nM
13 | Cc1c(Cc2ccc(NC(=O)c3ccc(Cl)c(Cl)c3)cc2)c2ccccc2n1CC(=O)O [Compound 4, 2-[3-[4-(3,4-dichlorobenzamido)benzyl]-2-methyl-1H-indol-1-yl]acetic acid] | 2.7 nM
14 | Cc1c(Cc2ccc(NC(=O)c3ccc(C(F)(F)F)cc3)cc2)c2ccccc2n1CC(=O)O [Compound 3, 2-[2-methyl-3-[4-[4-(trifluoromethyl)benzamido]benzyl]-1H-indol-1-yl]acetic acid] | 6.2 nM
15 | O=C(O)Cn1nc(Cc2ccc(NC(=O)c3ccc(Cl)cc3)cc2)c2ccccc21 [Compound 8, 2-[3-[4-(4-chlorobenzamido)benzyl]-1H-indazol-1-yl]acetic acid] | 9.7 nM

Test system: OVA induced BALB/c mice asthma model
Assay: OVA induced mice asthma model, cell count of pulmonary alveoli irrigating solution (oral administration)
Format: in vivo
Details: 30 mg/kg oral bid, Mean ± SEM
Description: Test procedure and results are as follows:
After acclimation, female BALB/c mice were divided into a blank control group, a model group and an administration group based on body weight randomly. Animal groups, dosage of administration and volume of administration were as detailed in Table 2. The model group and the administration group were intraperitoneally injected with OVA (ovalbumin) solution (containing […] and 2 mg potassium aluminium sulfate) 0.1 mL/animal to allergize on days 1, 14, the blank control group was injected with PBS (phosphate buffer solution). On days 28, 29, 30, 1% OVA was atomized and inhaled continuously to activate for 30 min, for the blank control group replaced with PBS. On days 27, 28, 29, 30, 31, the animals were administered orally with the pharmaceutical and the solvent. The blank control group was administered with the solvent 2 times every day, 1 h before inhalation of PBS and 7 h after the inhalation; the model group was administered with the solvent 2 times every day, 1 h before the inhalation of OVA for activation and 7 h after activation; the administration group was administered with the pharmaceutical 2 times every day, 1 h before the inhalation of OVA for activation and 7 h after activation. On day 32, the animals were executed, immediately irrigated the lung with 0.5 mL PBS (containing 1% FBS) via bronchus, and the irrigation was repeated 2 times. The irrigating solutions were combined, centrifugated, and the cells were resuspended with 1.5 mL PBS (containing 1% FBS). Cell count of bronchus pulmonary alveoli irrigating solution.

Row | SMILES | Acidophilic Cell | Lymphocytes | Macrophages | Neutrophilic Granulocyte | Total White Cell Count
16 | O=C(O)Cc1nn(Cc2ccc(NC(=O)c3ccc4ccccc4c3)cc2)c2ccccc12 [Compound 9, 2-[1-[4-(2-naphthamido)benzyl]-1H-indazol-3-yl]acetic acid] | 35.26 ± 4.53** *10^4/mL | 1.33 ± 0.23 *10^4/mL | 55.38 ± 5.1** *10^4/mL | 6.66 ± 1.87* *10^4/mL | 98.63 ± 4.53** *10^4/mL
